Test results: patent publication US8829007B2 (priority 2009, dated 2014)

Test system: influenza A virus (A/PR/8/34)
Test: microbe, parasite or virus in culture
Type: cell-based
Conditions: Influenza A virus, PR/8, MDCK, MDCK cells infected with A/PR/8/34, cell protection (CPE); read-out: IC50 (mean all)

SMILES | IC50
CCOC(=O)CCNC(=O)N1CCC[C@H](CNc2nc(-c3c[nH]c4ncc(Cl)cc34)ncc2F)C1 [Compound 118, (R)-ethyl 3-(3-((2-(5-chloro-1H-pyrrolo[2,3-b]pyridin-3-yl)-5-fluoropyrimidin-4-ylamino)methyl)piperidine-1-carboxamido)propanoate] | 5 to 20 µM
Cc1csc(NC(=O)N2CCC[C@H](CNc3nc(-c4c[nH]c5ncc(Cl)cc45)ncc3F)C2)c1 [Compound 130, (R)-3-((2-(5-chloro-1H-pyrrolo[2,3-b]pyridin-3-yl)-5-fluoropyrimidin-4-ylamino)methyl)-N-(4-methylthiophen-2-yl)piperidine-1-carboxamide] | < 5 µM
COC(CN1CCC[C@@H](CNc2nc(-c3c[nH]c4ncc(Cl)cc34)ncc2F)C1)OC [Compound 132, (S)-2-(5-chloro-1H-pyrrolo[2,3-b]pyridin-3-yl)-N-((1-(2,2-dimethoxyethyl)piperidin-3-yl)methyl)-5-fluoropyrimidin-4-amine] | > 20 µM
OCCN1CCC[C@@H](CNc2nc(-c3c[nH]c4ncc(Cl)cc34)ncc2F)C1 [Compound 133, (S)-2-(3-((2-(5-chloro-1H-pyrrolo[2,3-b]pyridin-3-yl)-5-fluoropyrimidin-4-ylamino)methyl)piperidin-1-yl)ethanol] | > 20 µM
Fc1cnc(-c2c[nH]c3ncc(Cl)cc23)nc1NC[C@@H]1CCCN(CC2CCCCC2)C1 [Compound 134, (S)-2-(5-chloro-1H-pyrrolo[2,3-b]pyridin-3-yl)-N-((1-(cyclohexylmethyl)piperidin-3-yl)methyl)-5-fluoropyrimidin-4-amine] | 5 to 20 µM
C[C@H](CO)CN1CCCC(CNc2nc(-c3c[nH]c4ncc(Cl)cc34)ncc2F)C1 (stereo partly shown) [Compound 135] | > 20 µM
Cc1cccc(CN2CCC[C@@H](CNc3nc(-c4c[nH]c5ncc(Cl)cc45)ncc3F)C2)c1 [Compound 137, (S)-2-(5-chloro-1H-pyrrolo[2,3-b]pyridin-3-yl)-5-fluoro-N-((1-(3-methylbenzyl)piperidin-3-yl)methyl)pyrimidin-4-amine] | > 20 µM
Cc1ccccc1CN1CCC[C@@H](CNc2nc(-c3c[nH]c4ncc(Cl)cc34)ncc2F)C1 [Compound 139, (S)-2-(5-chloro-1H-pyrrolo[2,3-b]pyridin-3-yl)-5-fluoro-N-((1-(2-methylbenzyl)piperidin-3-yl)methyl)pyrimidin-4-amine] | > 20 µM
CC(C)(C)C(=O)CN1CCC[C@@H](CNc2nc(-c3c[nH]c4ncc(Cl)cc34)ncc2F)C1 [Compound 140, (S)-1-(3-((2-(5-chloro-1H-pyrrolo[2,3-b]pyridin-3-yl)-5-fluoropyrimidin-4-ylamino)methyl)piperidin-1-yl)-3,3-dimethylbutan-2-one] | > 20 µM
C[C@@H](CO)CN1CCC[C@@H](CNc2nc(-c3c[nH]c4ncc(Cl)cc34)ncc2F)C1 [Compound 141, (R)-3-((S)-3-((2-(5-chloro-1H-pyrrolo[2,3-b]pyridin-3-yl)-5-fluoropyrimidin-4-ylamino)methyl)piperidin-1-yl)-2-methylpropan-1-ol] | > 20 µM
O=C(c1ccccc1Oc1ccccc1)N1CCC[C@H](CNc2nc(-c3c[nH]c4ncc(Cl)cc34)ncc2F)C1 [Compound 150, (R)-(3-((2-(5-chloro-1H-pyrrolo[2,3-b]pyridin-3-yl)-5-fluoropyrimidin-4-ylamino)methyl)piperidin-1-yl)(2-phenoxyphenyl)methanone] | 5 to 20 µM
CCOc1ccccc1C(=O)N1CCC[C@H](CNc2nc(-c3c[nH]c4ncc(Cl)cc34)ncc2F)C1 [Compound 158, (R)-(3-((2-(5-chloro-1H-pyrrolo[2,3-b]pyridin-3-yl)-5-fluoropyrimidin-4-ylamino)methyl)piperidin-1-yl)(2-ethoxyphenyl)methanone] | < 5 µM
O=C(c1nccs1)N1CCCC[C@H]1CNc1nc(-c2c[nH]c3ncc(Cl)cc23)ncc1F [Compound 165, (S)-(2-((2-(5-chloro-1H-pyrrolo[2,3-b]pyridin-3-yl)-5-fluoropyrimidin-4-ylamino)methyl)piperidin-1-yl)(thiazol-2-yl)methanone] | > 20 µM
COc1cccc(C(=O)N2CCCC[C@H]2CNc2nc(-c3c[nH]c4ncc(Cl)cc34)ncc2F)c1 [Compound 174, (S)-(2-((2-(5-chloro-1H-pyrrolo[2,3-b]pyridin-3-yl)-5-fluoropyrimidin-4-ylamino)methyl)piperidin-1-yl)(3-methoxyphenyl)methanone] | > 20 µM
COc1cccc(C(=O)N2CCCC[C@@H]2CNc2nc(-c3c[nH]c4ncc(Cl)cc34)ncc2F)c1 [Compound 184, (R)-(2-((2-(5-chloro-1H-pyrrolo[2,3-b]pyridin-3-yl)-5-fluoropyrimidin-4-ylamino)methyl)piperidin-1-yl)(3-methoxyphenyl)methanone] | > 20 µM
COc1ccccc1C(=O)N1CCCC[C@@H]1CNc1nc(-c2c[nH]c3ncc(Cl)cc23)ncc1F [Compound 190, (R)-(2-((2-(5-chloro-1H-pyrrolo[2,3-b]pyridin-3-yl)-5-fluoropyrimidin-4-ylamino)methyl)piperidin-1-yl)(2-methoxyphenyl)methanone] | 5 to 20 µM

SMILES | IC50
CCCC(=O)N1CCC[C@@H](CNc2nc(-c3c[nH]c4ncccc34)ncc2F)C1 [Compound 225, (S)-1-(3-((5-fluoro-2-(1H-pyrrolo[2,3-b]pyridin-3-yl)pyrimidin-4-ylamino)methyl)piperidin-1-yl)butan-1-one] | 5 to 20 µM
CN(C)C(=O)N1CCC[C@@H](CNc2nc(-c3c[nH]c4ncccc34)ncc2F)C1 [Compound 228, (S)-3-((5-fluoro-2-(1H-pyrrolo[2,3-b]pyridin-3-yl)pyrimidin-4-ylamino)methyl)-N,N-dimethylpiperidine-1-carboxamide] | 5 to 20 µM
CC(=O)N1CCCC[C@H]1CNc1nc(-c2c[nH]c3ncccc23)ncc1F [Compound 256, (S)-1-(2-((5-fluoro-2-(1H-pyrrolo[2,3-b]pyridin-3-yl)pyrimidin-4-ylamino)methyl)piperidin-1-yl)ethanone] | 5 to 20 µM
CCC(=O)N1CCCC[C@H]1CNc1nc(-c2c[nH]c3ncccc23)ncc1F [Compound 257, (S)-1-(2-((5-fluoro-2-(1H-pyrrolo[2,3-b]pyridin-3-yl)pyrimidin-4-ylamino)methyl)piperidin-1-yl)propan-1-one] | 5 to 20 µM
CCCC(=O)N1CCCC[C@H]1CNc1nc(-c2c[nH]c3ncccc23)ncc1F [Compound 258, (S)-1-(2-((5-fluoro-2-(1H-pyrrolo[2,3-b]pyridin-3-yl)pyrimidin-4-ylamino)methyl)piperidin-1-yl)butan-1-one] | 5 to 20 µM
O=C(c1ccccc1)N1CCCC[C@H]1CNc1nc(-c2c[nH]c3ncccc23)ncc1F [Compound 259, (S)-(2-((5-fluoro-2-(1H-pyrrolo[2,3-b]pyridin-3-yl)pyrimidin-4-ylamino)methyl)piperidin-1-yl)(phenyl)methanone] | 5 to 20 µM
COc1ccccc1C(=O)N1CCCC[C@H]1CNc1nc(-c2c[nH]c3ncccc23)ncc1F [Compound 260, (S)-(2-((5-fluoro-2-(1H-pyrrolo[2,3-b]pyridin-3-yl)pyrimidin-4-ylamino)methyl)piperidin-1-yl)(2-methoxyphenyl)methanone] | > 20 µM
CC(=O)N1CCC[C@H](CNc2nc(-c3c[nH]c4ncccc34)ncc2F)C1 [Compound 268, (R)-1-(3-((5-fluoro-2-(1H-pyrrolo[2,3-b]pyridin-3-yl)pyrimidin-4-ylamino)methyl)piperidin-1-yl)ethanone] | 5 to 20 µM
CCCC(=O)N1CCC[C@H](CNc2nc(-c3c[nH]c4ncccc34)ncc2F)C1 [Compound 270, (R)-1-(3-((5-fluoro-2-(1H-pyrrolo[2,3-b]pyridin-3-yl)pyrimidin-4-ylamino)methyl)piperidin-1-yl)butan-1-one] | 5 to 20 µM
O=C(c1ccccc1)N1CCC[C@H](CNc2nc(-c3c[nH]c4ncccc34)ncc2F)C1 [Compound 271, (R)-(3-((5-fluoro-2-(1H-pyrrolo[2,3-b]pyridin-3-yl)pyrimidin-4-ylamino)methyl)piperidin-1-yl)(phenyl)methanone] | 5 to 20 µM
COc1ccccc1C(=O)N1CCC[C@H](CNc2nc(-c3c[nH]c4ncccc34)ncc2F)C1 [Compound 272, (R)-(3-((5-fluoro-2-(1H-pyrrolo[2,3-b]pyridin-3-yl)pyrimidin-4-ylamino)methyl)piperidin-1-yl)(2-methoxyphenyl)methanone] | > 20 µM
CNC(=O)N1CCC[C@H](CNc2nc(-c3c[nH]c4ncccc34)ncc2F)C1 [Compound 274] | 5 to 20 µM
CCNC(=O)N1CCC[C@H](CNc2nc(-c3c[nH]c4ncccc34)ncc2F)C1 [Compound 275, (R)—N-ethyl-3-((5-fluoro-2-(1H-pyrrolo[2,3-b]pyridin-3-yl)pyrimidin-4-ylamino)methyl)piperidine-1-carboxamide] | 5 to 20 µM
CCCNC(=O)N1CCC[C@H](CNc2nc(-c3c[nH]c4ncccc34)ncc2F)C1 [Compound 276] | > 20 µM
O=C(CCCCl)N1CCCC[C@@H]1CNc1nc(-c2c[nH]c3ncc(Cl)cc23)ncc1F [Compound 278, (R)-4-chloro-1-(2-((2-(5-chloro-1H-pyrrolo[2,3-b]pyridin-3-yl)-5-fluoropyrimidin-4-ylamino)methyl)piperidin-1-yl)butan-1-one] | > 20 µM

Same assay, conditions: Influenza A virus, PR/8, MDCK; read-out: IC50 (mean all)

SMILES | IC50
COC(=O)/C=C/CN1CCC[C@@H](CNc2nc(-c3c[nH]c4ncc(Cl)cc34)ncc2F)C1 [Compound 138, (S,E)-methyl 4-(3-((2-(5-chloro-1H-pyrrolo[2,3-b]pyridin-3-yl)-5-fluoropyrimidin-4-ylamino)methyl)piperidin-1-yl)but-2-enoate] | > 20 µM
CCC(=O)N1CCCC(CNc2nc(-c3c[nH]c4ncccc34)ncc2F)C1 (stereo not shown) [Compound 269] | 5 to 20 µM

Same assay, conditions: MDCK cells infected with A/PR/8/34, cell protection (CPE); read-out: IC50 (mean all)

SMILES | IC50
NC1CCCCC1Nc1nc(-c2c[nH]c3ncccc23)ncc1F (stereo not drawn) [Compound 206, N-[5-fluoro-2-(1H-pyrrolo[5,4-b]pyridin-3-yl)pyrimidin-4-yl]cyclohexane-cis-1,2-diamine] | < 5 µM
